Patent US20230323420A1, “PERFUSION MEDIUM” (Boehringer Ingelheim International GmbH, priority 2017, published 2023)

Key:
[1] = tested on: CHO-DG44 cells expressing a recombinant monoclonal IgG1 antibody; experiment: High density perfusion culture in 2 L bioreactors, 1.6 mM ferric citrate (Example 2); assay type: cell-based, Chinese hamster; details: for decrease of cell bleed rate: 1.6 mM ferric citrate background media, over 4 days (FIG. 5B)
Experimental: A high density perfusion culture of CHO-DG44 cells expressing a recombinant monoclonal IgG1 antibody was treated with high iron (Fe) and vitamin A (retinyl acetate) to assess the effect on cell proliferation, and by extension, the cell bleed. A bench-scale experiment was performed in three 2 L perfusion bioreactors with 0.2 μm PES hollow fibers (Spectrum Labs) on alternating tangential flow (ATF) at 0.8 L/min flow rate. Bioreactors were maintained at: 37° C., 60% dissolved oxygen, 348 RPM agitation, and a target pH of 7.0 (pH target was not always achieved). A CHO DG44 cell line expressing a monoclonal antibody was inoculated into the bioreactors at approximately 1e6 cells/mL in proprietary chemically defined, serum-free inoculation medium at a 1:4 dilution of conditioned to fresh inoculation media. This culture was grown in batch mode (no flow in or out) for 2 days, at which time perfusion was started with BI's perfusion media (manufactured by SAFC). […] During the growth phase (d0-d10 post-inoculation) there was no cell bleed, allowing the viable cell density (VCD) to reach desired level. On day 8, ferric citrate (Sigma-Aldrich; CAS 3522-50-7) was added to the perfusion medium at a concentration of 1.6 mM, targeting a pH of 6.9. Once optimal cell density was reached on day 10, cell bleed was initiated to maintain constant VCD (steady state). The calculation governing the cell bleed rate was based on maintaining the Incyte biomass capacitance probe value (Hamilton) which corresponded to the target VCD.
After steady state was established for several days, retinyl acetate (Sigma-Aldrich, CAS 127-47-9) was introduced to two of the bioreactors, with one bioreactor acting as control with no retinyl acetate (Table 4). Retinyl acetate was dissolved in absolute ethanol and sterile-filtered with a 0.2 μm filter to make a sterile stock solution of 152 mM before addition to media bags for final concentrations of 50 μM, 100 μM, 150 μM, or 200 μM retinyl acetate (in four respective bags). Each treatment bioreactor then received retinyl acetate at a first concentration between day 15 and 20 (50 μM or 100 μM) and at a second concentration between days 20-24 (150 or 200 μM) as shown in Table 4. On day 15 and 20 for each treatment, the bag of new treatment media was attached to the media inlet line of the bioreactors. […]
Samples were taken near-daily for: VCD and viability (Vi-Cell, Beckman-Coulter), osmolality (Advanced Instrument Inc), pH, CO2, and O2 (RapidLab 1240 BGA, Siemens), and metabolite readings (Cedex BioHT, Roche). […]

[2] = tested on: Chinese hamster ovary (CHO) DG44 cells; experiment: Cell cycle analysis of deep well culture (propidium iodide, flow cytometry); assay type: cell-based; details: 400 μM retinyl acetate, 3.1 mM ferric citrate, cultivation for 7 days; control cells 62.6%
Experimental: Cell cycle analysis was performed on days 1 and 7 of deep well culture. Cells were grown in medium containing 3.1 mM ferric citrate and 400 μM retinyl acetate or control medium and fixed on days 1 and 7 by a wash in cold PBS before suspension in 70% ethanol. Cells were stored at −20° C. until analysis. 1e5 cells per sample were stained with propidium iodide with RNase (BD Biosciences) for DNA content and analyzed by flow cytometry on a Guava easyCyte flow cytometer (EMD Millipore).

[3] = tested on: Chinese hamster ovary (CHO) DG44 cells expressing a recombinant monoclonal IgG1 antibody; experiment: Deep well plate model of perfusion (small scale culture): viable cell density, viability, titer; assay type: cell-based
[4] = tested on: Chinese hamster ovary (CHO) DG44 cells expressing a recombinant monoclonal IgG1 antibody; experiment: as above; assay type: cell-based; remark: listed apart in the source
Experimental: Axygen 24 well pre-sterilized deep-well plates (Neta Scientific Inc, Hainesport, NJ) were used as a scale-down model of perfusion. A starting cell density of 20×10^6 cells/mL (3 mL per well) was targeted to simulate the high cell density growth phase of perfusion. Chinese hamster ovary (CHO) DG44 cells expressing a recombinant monoclonal IgG1 antibody were grown in proprietary chemically defined, serum-free perfusion media at 33° C. with 5% CO2, 80% humidity, and 200 rpm shaking speed in an incubator with a 5.0 cm orbit diameter for 4 or 8 days. A 0.1 mL sample was taken for cell count daily prior to media exchange. Medium exchanges were performed daily by centrifuging the plate at 1200 rpm for 5 minutes, removing 2 mL supernatant, and resuspending cells in 2.1 mL fresh, pre-warmed media at 37° C. (in early days, this equates to a ⅔ volume exchange, whereas in later days the cell pellet grows such that 2 mL is nearly the entire liquid volume, equating to a 1 VVD exchange). Supernatant was saved to perform process analytics.
Retinyl acetate was tested in concentrations ranging from 5 μM to 600 μM in proprietary chemically defined, serum-free perfusion medium with 230 μM or 3.1 mM ferric citrate. A 152 mM stock solution of retinyl acetate was prepared by dissolving 50 mg/mL retinyl acetate powder to prepare a 152 mM stock (Sigma-Aldrich; CAS 127-47-9) in absolute ethanol, or 75 mg/mL retinyl acetate for 228 mM stock, for each experimental run; after thorough mixing, the solutions were sterile-filtered with 0.22 μm Steriflips (EMD Millipore). This stock was diluted down further with perfusion medium to provide a working stock. Media aliquot concentrations were 30% higher than the targeted final concentration in each treatment to compensate for residual media left in the well and cell pellet volume. The media were prepared in proprietary chemically defined, serum-free media (either 230 μM or 3.1 mM Fe background) as shown in Table 2. Control condition had no retinyl acetate supplement; ethanol control added the solvent with no retinyl acetate at the level equivalent to the greatest amount for each experiment. These media aliquots were used in the daily media exchanges as described above.
Viability and viable cell density were measured by Vi-CELL Cell Counter using the Trypan blue dye exclusion method (Beckman Coulter Life Sciences, Indianapolis, IN). Titer, metabolites, and lactate dehydrogenase (LDH) levels were measured using a Cedex BioHT (Roche Diagnostics GmbH, Mannheim, Germany). These titer measurements had been previously verified to be in agreement with in house HPLC Protein A methods. Osmolality was measured with a 2020 Multi-Sample Micro Osmometer (Advanced Instruments, Inc, Norwood, MA) based on freezing point depression.
A small scale cell culture using CHO DG44 cells expressing a recombinant monoclonal IgG1 antibody was treated with ferric citrate and retinyl acetate at different concentrations to assess the effect on cell viability, essentially as described for the small scale culture in Example 1.

[5] = tested on: CHO DG44 cells expressing a recombinant monoclonal IgG1 antibody; experiment: High density perfusion culture in bioreactors, 350 μM ferric citrate (Example 3); assay type: cell-based, Chinese hamster
Experimental: A high density perfusion culture of CHO DG44 cells expressing a recombinant monoclonal IgG1 antibody was treated with low iron (Fe) and vitamin A (retinyl acetate) to assess the effect on cell proliferation, and the cell bleed. A bench-scale experiment was performed essentially as described above for Example 2. During the growth phase (d0-d10 post-inoculation) there was no cell bleed, allowing the viable cell density (VCD) to reach desired level. On day 8, ferric citrate (Sigma-Aldrich; CAS 3522-50-7) was added to the perfusion media at a concentration of 350 μM. Once optimal cell density was reached on day 10, cell bleed was initiated to maintain constant VCD (steady state). The calculation governing the cell bleed rate was based on maintaining the Incyte biomass capacitance probe value (Hamilton company) which corresponded to the target VCD.
On day 25 day, retinyl acetate (Sigma-Aldrich, CAS 127-47-9) was introduced to one of the bioreactors, with one bioreactor acting as control with no retinyl acetate. Retinyl acetate was dissolved in absolute ethanol and sterile-filtered with a 0.2 μm filter to make a sterile stock solution of 152 mM before addition to media bags for final concentrations of 100 μM retinyl acetate. Retinyl acetate was then added to the bioreactor on day 25. The bag of new treatment media was attached to the media inlet line of the bioreactors and in order to ensure an instantaneous achievement of target retinyl acetate concentration within the vessels (as opposed to the gradual increase which would occur via introduction through the perfusion medium), a bolus addition of 1.3 mL retinyl acetate stock solution was added directly to the treatment bioreactor via injection through a sterile addition line. Samples were taken and analyzed as explained for Example 2.

CHO-DG44 cells = experiment: Cell cycle analysis of perfusion bioreactor culture (Example 2); assay type: cell-based, Chinese hamster; details: 150 μM and 200 μM retinyl acetate, 1.6 mM ferric citrate, compared to control, data not shown
Experimental: Samples were taken near-daily for: VCD and viability (Vi-Cell, Beckman-Coulter), osmolality (Advanced Instrument Inc), pH, CO2, and O2 (RapidLab 1240 BGA, Siemens), and metabolite readings (Cedex BioHT, Roche). DeltaV was used to control and Finesse TruBio software was used to record and monitor cell bleed, permeate, and media pump rates. Cell samples were taken throughout the experiment and stored at −20° C. in 70% EtOH after treatment with Accumax (Innovative Cell Technologies) for later cell cycle analysis using propidium iodide stain with RNase (BD Biosciences) on a Guava easyCyte flow cytometer (EMD Millipore).

CHO cultures = details: cited from earlier work
[6] = 100 μM retinyl acetate, 350 μM ferric citrate, days 25 to 29 (FIG. 7)

With `CC(=O)OC/C=C(C)/C=C/C=C(C)/C=C/C1=C(C)CCCC1(C)C` [retinyl acetate] the bleed flow rate ([1]; 50 μM or 100 μM retinyl acetate, 1.6 mM ferric citrate, days 15 to 20, compared to control (FIG. 5A)) was “reduced in a dose-dependent manner”, the viability ([1]; 50 μM to 200 μM retinyl acetate, 1.6 mM ferric citrate (FIG. 4)) was “not affected” and the “decrease of cell bleed rate” value ([1]; 150 μM vitamin A) was “approximately 45%”. For the same compound, the “decrease of cell bleed rate” value ([1]; 200 μM vitamin A) was “roughly 70%”, the “cells in the G0/G1 phase” value [2] was 86% and the “SGR (specific growth rate)” value ([3]; 2 μM retinyl acetate, data not shown) was “no effect on SGR was observed”. For the same compound, the specific growth rate ([3]; 350 μM ferric citrate and 200 μM retinyl acetate, data not shown) was “decrease in specific growth rate”, the viability ([3]; Chinese hamster, 5 days, 200 μM) was “negative effect on viability after 5 days” and the viable cell density ([4]; 5 μM to 20 μM retinyl acetate, 3.1 mM ferric citrate (FIG. 1A)) was “reduced the viable cell density in a dose-dependent manner”. For the same compound, the viable cell density ([4]; 40 μM to 100 μM retinyl acetate, 3.1 mM ferric citrate (FIG. 2A)) was “reduced the viable cell density in a dose-dependent manner”, the cell proliferation ([4]; 60 μM to 400 μM retinyl acetate, 3.1 mM ferric citrate, small scale studies) was “inhibit cell proliferation” and the “growth / viable cell density” value ([4]; 200 μM and 400 μM retinyl acetate, 3.1 mM ferric citrate (FIG. 3A)) was “further inhibited growth resulting in a lower viable cell density”. The viable cell density ([4]; 600 μM retinyl acetate, 3.1 mM ferric citrate (FIG. 3A)) was “sharply declined from about day 2”, the “effect on viable cell density” value ([4]; 200-400 μM retinyl acetate, 230 μM ferric citrate, data not shown) was “present, but less pronounced” and the “decrease in growth rate” value ([4]; low ferric citrate (230 μM) versus high ferric citrate (3.1 mM), same retinyl acetate level) was “less pronounced in low ferric citrate”. The “cell specific productivity (qp)” value ([4]; retinyl acetate with 3.1 mM ferric citrate, data not shown) was “unaffected”, the viability ([4]; same retinyl acetate concentrations (200 μM), 3.1 mM ferric citrate (FIG. 8)) was “unaffected” and the cell bleed [5, 6] was “markedly decreased”. For the same compound, the specific growth rate [5, 6] was “markedly decreased”, the viability ([5]; 100 μM retinyl acetate, 350 μM ferric citrate, versus 350 μM ferric citrate alone (FIG. 6)) was “same high viability” and the “reduction of cell bleed rate” value ([5]; 100 μM vitamin A, 350 μM ferric citrate background media, over 5 days (FIG. 7A)) was “approximately 50%”. The “cell percentage in G0/G1 phase” value (CHO-DG44 cells) was “increase in cell percentage in G0/G1 phase”.

In the case of `CC1=C(/C=C/C(C)=C/C=C/C(C)=C/CO)C(C)(C)CCC1` [retinol], the cytotoxicity (CHO cultures; higher retinol concentrations (above 10 to 50 μM)) is given as “cytotoxic” and the “growth and protein synthesis” value (CHO cultures; retinol 10 to 50 μM) is given as “inhibitory effect on growth and protein synthesis”.
